“Also recorded” adds a separate entry of the source.
Experiments:
Her2 [1] = assay: Her2 levels in MCF-7 xenograft tumor tissue (immunoblotting); assay type: in vivo, Mice; conditions: single dose 50, 100 and 500 mg/kg i.p., 12 hours post-treatment
Procedure: (§1) PU3 was tested for its safety and potency in MCF-7 xenografts. […] Mice with established tumors were treated with a single dose of PU3 at doses of 50, 100 and 500 mg/kg i.p. Control mice were treated with DMSO alone. Mice were sacrificed 12 hours post-treatment. For immunoblotting, tumor tissue was homogenized in 2% SDS lysis buffer (pH 7.4).

[2] = Safety in mice with MCF-7 xenografts; assay type: in vivo; conditions: IP
Procedure: as §1

MDA-MB-468 [3] = assay: Growth assay, cell number by coulter counter; assay type: cell-based, human; conditions: MDA-MB-468, FIG. 14
Procedure: (§2) Cell cultures of MCF-7, SKBr3 and MDA-MB-468 cells were treated with PU3 at one of several concentrations or a DMSO control to test for the occurrence of antiproliferative effects. FIGS. 14A-C show the results of cell number as a function of time.

SKBr3 = assay: Growth assay, cell number by coulter counter; assay type: cell-based, human; conditions: SKBr3, FIG. 14
Procedure: as §2

MCF-7 [4] = assay: Growth assay, cell number by coulter counter; assay type: cell-based, human; conditions: MCF-7, FIG. 14
Procedure: as §2

MCF-7 cells = assay: Changes in cell morphology; assay type: cell-based, human; conditions: MCF-7 cells exposed to drug
From the text: Drugs may also be assayed based upon observed very characteristic changes in cell morphology. […] The increase in size is mostly due to an abundance in cytoplasm. These morphological changes are characteristic of mature epithelial differentiation and reversal of transformation.

MDA-MB-468 [5] = assay: Growth inhibition, sulforhodamine B assay; assay type: cell-based, human; conditions: Homo sapiens, MDA-MB-468, 72 hours, unit inferred
From the text: (§3) Protein Assays. […] Antiproliferative index. […] Tissue Culture IC50 Studies. […] Her2 degradation. Total Protein Assays. […] Binding studies. Solid phase competition assays.

MCF-7 [6] = assay: Growth inhibition, sulforhodamine B assay; assay type: cell-based, human; conditions: Homo sapiens, MCF7, 72 hours, unit inferred
From the text: as §3

Hsp90alpha [7] = target: T1, Hsp90alpha (Homo sapiens, UniProt P07900); assay: Solid phase competition assay with GM-beads, Hsp90 alpha immunoblot; assay type: binding; parameters: purchased Stressgen SPP-770; conditions: competition with immobilized GM; unit inferred; read-out: EC50 Hsp90 α
Procedure: A test was also designed which allows identification of compounds which interact differentially with Hsp90-alpha and Hsp90-beta. […] An Hsp90 protein preparation containing both the alpha and the beta form is incubated with the support in the presence or absence of a compound to be evaluated. […] After washing, the material bound to the support is eluted and the eluate is separated on an SDS/PAGE gel and visualized by immunoblotting with anti-Hsp90-alpha and anti-Hsp90-beta to determine the amount of material bound. Alternatively, if quantitative amounts of the Hsp90 protein preparation or known ratios of alpha to beta forms of Hsp90 are used in the first instance, the unbound material can be analyzed by a similar technique.
as §3

Raf-1 [8] = assay: Raf-1 amount in MCF-7 cells, time course; assay type: cell-based, human; conditions: MCF-7, 100 μM, 1.5-24 hours
Procedure: (§4) To test the time course of degradation, MCF-7 cells were treated with 100 μM PU3. Aliquots of cells were recovered at 1.5, 3, 6, 12 and 24 hours, and the amount of Her2, Raf-1, Hsp90 and Trap-1 was evaluated.

Hsp70 = Hsp70 levels in MCF-7 cells (Western blotting); assay type: cell-based, human
Her2 [9] = assay: Her2 total protein degradation in MCF-7 cells (immunoblot);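 further: Her2 levels judged by SDS-PAGE western blot of whole-cell lysates probed with anti-Her2 antibody, compared with DMSO vehicle-treated cells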
[10] = tested on: Her2, Raf1, Her3, estrogen receptor (ER), Rb, p85 (PI3K), tubulin and actin; assay: Western blot of signaling proteins in SKBr3 and MCF-7 cells (differential degradation); assay type: cell-based, human
Procedure: Cultures of SKBr3 and MCF-7 cells were treated with varying concentrations (0, 10, 50 100, or 250 μM) of PU3 for 24 hours. The cells were lysed and levels of Her2, Raf1, Her3, estrogen receptor (ER), p85 (PI3K), tubulin and actin were analyzed by western blotting. Reduction in the amount of those signaling proteins which depend on hsp90 for their function (Her2, Raf1, Her3 and ER) was observed. No effect was observed on PI3K, tubulin or actin, proteins which are involved in other signaling pathways.

Hsp90 = Hsp90 levels in MCF-7 cells (Western blotting); assay type: cell-based, human
Procedure: as §4

Trap1 = Trap1 levels in MCF-7 cells (Western blotting); assay type: cell-based, human; conditions: MCF-7, 10-250 μM, 24 hours
estrogen receptor = assay: Estrogen receptor degradation in MCF-7 cells (immunoblot); assay type: cell-based, human; conditions: MCF-7, 24 hours, 10-250 μM
Hsp90alpha [11] = target: T1, Hsp90alpha; assay: PU3-biotin on Sepharose-Streptavidin beads; assay type: binding; conditions: immobilized PU3-biotin
From the text: (§5) PU3 was linked to Biotin through the middle OH in accordance with the synthetic scheme shown in FIGS. 16A and B. PU3-biotin was immobilized on Sepharose-Streptavidin beads.

Trap-1 = target: T2, Trap-1 (Homo sapiens, UniProt Q12931); assay: PU3-biotin on Sepharose-Streptavidin beads; assay type: binding; conditions: immobilized PU3-biotin
T2 sequence (Q12931 60-704): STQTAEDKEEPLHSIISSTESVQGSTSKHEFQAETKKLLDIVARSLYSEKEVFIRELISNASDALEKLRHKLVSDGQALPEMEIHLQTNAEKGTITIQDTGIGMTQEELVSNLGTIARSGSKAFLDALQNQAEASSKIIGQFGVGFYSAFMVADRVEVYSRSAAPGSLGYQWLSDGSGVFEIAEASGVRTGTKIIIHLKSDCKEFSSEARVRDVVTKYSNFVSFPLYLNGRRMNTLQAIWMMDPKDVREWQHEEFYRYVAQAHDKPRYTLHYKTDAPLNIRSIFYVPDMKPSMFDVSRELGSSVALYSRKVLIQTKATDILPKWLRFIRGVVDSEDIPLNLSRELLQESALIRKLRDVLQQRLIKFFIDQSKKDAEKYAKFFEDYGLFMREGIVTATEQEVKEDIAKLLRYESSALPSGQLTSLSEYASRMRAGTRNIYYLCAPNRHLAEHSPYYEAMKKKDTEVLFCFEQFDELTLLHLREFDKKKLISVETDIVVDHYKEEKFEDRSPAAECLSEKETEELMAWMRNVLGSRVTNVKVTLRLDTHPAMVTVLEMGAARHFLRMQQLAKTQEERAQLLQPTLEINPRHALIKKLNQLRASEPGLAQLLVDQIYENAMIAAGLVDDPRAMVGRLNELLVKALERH
From the text: as §5

Raf-1 [12] = assay: Raf-1 degradation in SKBr3 cells (immunoblot); assay type: cell-based, human; conditions: SKBr3, 24 hours, 10-250 μM
Procedure: PU4 degraded Her2 at concentrations greater than 50 μM and Raf-1 at a concentration of 250 μM.

PI3 kinase (p85) = PI3 kinase (p85) levels in MCF-7 xenograft tumor tissue (immunoblotting); assay type: in vivo, Mice; conditions: single dose 50, 100 and 500 mg/kg i.p., 12 hours post-treatment
Procedure: as §1

[13] = MCF-7, 100 μM, within the 24 hour period
[14] = SKBr3 and MCF-7, 10-250 μM, 24 hours

CCCCn1c(Cc2cc(OC)c(OC)c(OC)c2)nc2c(N)ncnc21 [PU3]
Her2 levels in tumor (Her2 [1]): reduction in Her2 levels | dose administered without significant signs of toxicity [2]: up to 500 mg/kg | cell number as a function of time (MDA-MB-468 [3]): clearly inhibits growth | cell number as a function of time (SKBr3): clearly inhibits growth | cell number as a function of time (MCF-7 [4]): clearly inhibits growth | cell morphology (MCF-7 cells): flatten, increase in size and have distinct cellular boundaries | IC50 (MDA-MB-468 [5]): 61 µM | IC50 (MCF-7 [6]): 50 µM | EC50 (Hsp90alpha [7]): […] | amount of Raf-1 (Raf-1 [8]): did not change significantly | synthesis of Hsp70 (Hsp70; [13]): significant synthesis | cellular levels of Hsp70 (Hsp70; MCF-7, 10-250 μM, 24 hours): increases the cellular levels of Hsp90 and Hsp70 | IC50 (Her2 [9]; Homo sapiens, MCF7, read-out: IC50 Her2/MCF-7): 55 µM | Her2 lost (Her2 [9]; MCF-7, 100 μM, within 3 hours of administration): more than 50% | amount of Her2, Raf1, Her3 and ER [10, 14]: Reduction | amount of PI3K, tubulin or actin [10, 14]: No effect | Her2 degradation and lower-molecular weight HER-2 band (Example 3 summary) ([10]; cell line not stated): rapid decrease in Her2 levels | Raf / Her3 degradation (Example 3 summary) ([10]; cell line not stated): less sensitive to PU3, but are degraded at higher concentrations | synthesis of Hsp90 (Hsp90; [13]): significant synthesis | cellular levels of Hsp90 (Hsp90; MCF-7, 10-250 μM, 24 hours): increases the cellular levels of Hsp90 and Hsp70 | Trap1 level / band recognized by anti-Trap-1 antibody (Trap1): induces a protein band that migrates more rapidly than Trap-1 | estrogen receptor degradation (estrogen receptor): partially degraded estrogen receptor at concentrations over 50 μM; also recorded: dose-dependent degradation | interaction with Hsp90alpha (Hsp90alpha [11]): interaction of PU3 with the Trap-1 and Hsp90alpha | interaction with Trap-1 (Trap-1): interaction of PU3 with the Trap-1 and Hsp90alpha | Raf-1 degradation (Raf-1 [12]): only partial loss of Raf-1 at 250 μM | PI3 kinase (p85) levels in tumor (PI3 kinase (p85)): No change

— patent US7439359B2, “Small molecule compositions for binding to hsp90” (Sloan-Kettering Institute for Cancer Research, priority 2000, dated 2008)
